Laboratory results published in publication PMC8658022, “Towards Property Profiling: SYNTHESIS and SAR Probing of New Tetracyclic Diazaphenothiazine Analogues” (International Journal of Molecular Sciences, 2021).
In brackets after ≈: the same amount, converted by molar mass.

Key:
[1] = test system: methicillin-resistant S. aureus SA 3202; assay: broth dilution micro-method MIC, MRSA SA 3202; type: cell-based; settings: Staphylococcus aureus, clinical isolate, 24 h, 37 °C
Experimental: (§1) The synthesized compounds were evaluated for in vitro antibacterial activity against representatives of multidrug-resistant bacteria and clinical isolates of methicillin-resistant Staphylococcus aureus (MRSA) 63718, SA 630, and SA 3202 that were obtained from the National Institute of Public Health (Prague, Czech Republic). S. aureus ATCC 29213 was used as a reference and quality control strain. Ampicillin (Sigma, St. Louis, MO, USA) was employed as the standard. Prior to testing, each strain was passaged onto nutrient agar (Oxoid, Basingstoke, UK) with 5% of bovine blood, and bacterial inocula were prepared by suspending a small portion of a bacterial colony in sterile phosphate-buffered saline (pH 7.2–7.3). The cell density was adjusted to 0.5 McFarland units using a densitometer (Densi-La-Meter, LIAP, Riga, Latvia). This inoculum was diluted to reach the final concentration of bacterial cells 5 × 10^5 CFU/mL in the wells. […] The final concentrations of the evaluated compounds ranged from 256 to 0.008 μg/mL. The broth dilution micro-method, modified according to the NCCLS (National Committee for Clinical Laboratory Standards) guidelines in Mueller–Hinton (MH) broth, was used to determine the minimum inhibitory concentration (MIC). Drug-free controls, sterility controls, and controls consisting of MH broth and DMSO alone were included. The determination of results was performed visually after 24 h of static incubation in the darkness at 37 °C in an aerobic atmosphere. Each experiment was repeated at least three times.

[2] = test system: T47D (human breast cancer); assay: WST-1 cell proliferation assay, T47D; type: cell-based; settings: 72 h exposure, mean ± std
Experimental: (§2) Compounds were evaluated for their antiproliferative activity using […] cultured cell lines: A549 (human lung carcinoma, ATCC, Manassas, VA, USA), SNB-19 (human glioblastoma, DSMZ, German Collection of Microorganisms and Cell Cultures), T-47D (human breast cancer, ATCC, Manassas, VA, USA) and NHDF (normal human dermal fibroblasts, ATCC, Manassas, VA, USA). The cultured cells were kept at 37 °C and 5% CO2. The cells were seeded (1 × 10^4 cells/well/100 μL DMEM supplemented with 10% FCS and streptomycin and penicillin) using 96-well plates (Corning). Cells were counted in a hemocytometer (Burker chamber) using a phase contrast Olympus IX50 microscope equipped with Sony SSC-DC58 AP camera and Olympus DP10 digital camera.
(§3) The antiproliferative effect of the compounds exerted on cancer and normal cells was determined using the Cell Proliferation Reagent WST-1 assay (Roche Molecular Biochemicals Mannheim, Germany). This assay is based on a colorimetric method using the enzymatic ability of viable cells to cause the bright red-colored stable tetrazolium monosodium salt [2-(4-iodophenyl)-3-(4-nitrophenyl)-5-(2,4-disulfophenyl)–2H-tetra-zolium] to transform into the dark red-colored soluble formazan. […] An increase in the amount of formazan dye formed correlated with the number of metabolically active cells in the culture. The formazan dye produced by metabolically active cells was quantified by absorbance reading at appropriate wavelengths. The examined cells were exposed to the tested compounds (1 mg/mL DMSO stock) for 72 h at various concentrations (0.1 μg/mL–100 μg/mL). The control was performed in order to eliminate the DMSO effect at the concentration used. Cell cultures were incubated with WST-1 (10 μL) for 1 h. The absorbance of the samples was measured against a background control at 450 nm using a microplate reader with a reference wavelength at 600 nm. The obtained results are expressed as the means of at least two independent experiments performed in triplicate. The antiproliferative activity of the tested compounds were compared to cisplatinum. The values of IC50 (a concentration of a compound that is required for 50% inhibition) were calculated from the dose-response relationship with respect to control.

[3] = test system: SNB-19 (human glioblastoma); assay: WST-1 cell proliferation assay, SNB-19; type: cell-based; settings: mean ± std
Experimental: as §2, §3

[4] = experimentally determined lipophilicity (logPTLC); type: physicochemical; settings: thin-layer chromatography (TLC)
Source text: In order to examine the lipophilic profile of the investigated compounds, the empirically determined logPTLC parameters (see Table 1) were compared with the theoretically approximated lipophilicity coefficients (clogP) using an ensemble of in silico predictors, e.g., clogP, Molinspiration, Osiris, HyperChem 7.0, Sybyl-X, MarvinSketch 15, ACD/ChemSketch 2015, Dragon 6.0, Kowwin, XlogP3, ChemDraw and ACD/Percepta programs. Subsequently, the deduced clogP parameters were cross-compared with the experimental logPTLC and inter-correlated with each other as presented in Figure 5. A good correlation was obtained (r = 0.94) for the MarvinSketch-made clogP values and the empirical logPTLC was recorded, respectively. […] A quite high inter-correlation was observed among the programs for lipophilicity specification. Obviously, some variations in clogP values resulted from different in silico algorithms (atom/fragment- or descriptor-based) implemented in the programs and/or training data employed in the training step [33].

[5] = test system: methicillin-resistant S. aureus SA 630; assay: broth dilution micro-method MIC, MRSA SA 630; type: cell-based; settings: Staphylococcus aureus, clinical isolate, 24 h, 37 °C
Experimental: as §1

[6] = test system: Staphylococcus aureus ATCC 29213; assay: broth dilution micro-method MIC, S. aureus ATCC 29213; type: cell-based; settings: ATCC29213, 24 h, 37 °C
Experimental: as §1

[7] = test system: A549 (human lung carcinoma); assay: WST-1 cell proliferation assay, A549; type: cell-based; settings: mean ± std
Experimental: as §2, §3

[8] = test system: NHDF (normal human dermal fibroblasts); assay: WST-1 cell proliferation assay, NHDF normal cells; type: cell-based; settings: normal cell line, 72 h exposure, mean ± std
Experimental: as §2, §3

[9] = test system: methicillin-resistant S. aureus 63718; assay: broth dilution micro-method MIC, MRSA 63718; type: cell-based; settings: Staphylococcus aureus, clinical isolate, 24 h, 37 °C
Experimental: as §1

[10] = test system: MRSA isolates; assay: broth dilution micro-method MIC, MRSA isolates (pooled statement); type: cell-based; settings: Staphylococcus aureus; range over three MRSA isolates and both compounds; read-out: MICs against MRSA isolates
Experimental: as §1, with “The determination of results was performed visually after 24 h of static incubation in the darkness at 37 °C in an aerobic atmosphere. Each experiment was repeated at least three times.” left out

[11] = Homo sapiens, SNB-19, 72 h exposure
[12] = Homo sapiens, A549, 72 h exposure

Structure (SMILES)	MIC [1] [µM]	IC50 ([2]; Homo sapiens, T47D) [µM]	IC50 [3, 11] [µM]	chromatographic logP [4]	MIC [5] [µM]	MIC [6] [µM]	IC50 [7, 12] [µM]	MIC [9] [µM]	MIC [10] [µM]	IC50 ([8]; Homo sapiens, NHDF) [µM]	IC50 [2] [µM]	IC50 ([3]; 72 h exposure) [µM]	IC50 ([7]; 72 h exposure) [µM]	IC50 [8] [µM]
Cc1cc(Cl)nc2c1Nc1c(c[n+](C)c3ccccc13)S2 [3g, 9-chloro-5,11-dimethyl-12H-quino[3,4-b]pyrido[5,6-e][1,4]thiazinium chloride]	> 731	26.7 ± 1.6	3.5 ± 0.2	5.66	> 731	> 731	20 ± 1.6	> 731		3.8 ± 0.3				
Cc1cc(F)nc2c1Nc1c(c[n+](C)c3ccccc13)S2 [3h, 9-fluoro-5,11-dimethyl-12H-quino[3,4-b]pyrido[5,6-e][1,4]thiazinium chloride]	383	47.7 ± 2.8	126 ± 14.8	5.72	383	383	15.4 ± 1	383		28.5 ± 4				
COc1ccc2c(n1)Sc1c[n+](C)c3ccccc3c1N2 [3j, 9-methoxy-5-methyl-12H-quino[3,4-b]pyrido[5,6-e][1,4]thiazinium chloride]	193	8.1 ± 1	6.1 ± 0.4	4.2	96	193	1.7 ± 0.1	193		2 ± 0.3				
C[n+]1cc2c(c3ccccc31)Nc1cnccc1S2 [4a, 5-methyl-5H-qujino[3,4-b]pyrido[3,4-e][1,4]thiazinium chloride]	424	36.8 ± 2.1	18.7 ± 1.2	2.93	424	424	30.1 ± 3.4	424		7.5 ± 0.2				
CC1(C)S[C@@H]2[C@H](NC(=O)[C@H](N)c3ccccc3)C(=O)N2[C@H]1C(=O)O [AMP, Ampicillin, reference compound]	45.8 (≈ 16 µg/mL)				45.8 (≈ 16 µg/mL)	5.72 (≈ 2 µg/mL)		45.8 (≈ 16 µg/mL)						
N.N.[Cl][Pt][Cl] [cisplatinum, reference compound]											9 ± 0.7	16.7 ± 1.3	3 ± 0.2	29.9 ± 3.3

Now from value to compound, other results behind:

MIC [1] [µM]	IC50 ([2]; Homo sapiens, T47D) [µM]	IC50 [3, 11] [µM]	chromatographic logP [4]	MIC [5] [µM]	MIC [6] [µM]	IC50 [7, 12] [µM]	MIC [9] [µM]	MIC [10] [µM]	Structure (SMILES)	IC50 ([8]; Homo sapiens, NHDF) [µM]	IC50 [2] [µM]	IC50 ([3]; 72 h exposure) [µM]	IC50 ([7]; 72 h exposure) [µM]	IC50 [8] [µM]
212	46.2 ± 7.1	132 ± 11.6	3.53	106	212	70.3 ± 9.8	212		C[n+]1cc2c(c3ccccc31)Nc1cccnc1S2 [3a, 5-methyl-12H-quino[3,4-b]pyrido[5,6-e][1,4]thiazinium chloride]	21.1 ± 1.5				
337	5.2 ± 0.4	4.1 ± 0.3	4.8	337	337	23.8 ± 1.7	337		C[n+]1cc2c(c3ccccc31)Nc1ccc(Br)nc1S2 [3b, 9-bromo-5-methyl-12H-quino[3,4-b]pyrido[5,6-e][1,4]thiazinium chloride]	0.8 ± 0.05				
42.1	12.2 ± 1.7	3.4 ± 0.2	4.57	21.1	42.1	20.6 ± 1.2	42.1	12.5 to 42.1	C[n+]1cc2c(c3ccccc31)Nc1cc(Br)cnc1S2 [3c, 10-bromo-5-methyl-12H-quino[3,4-b]pyrido[5,6-e][1,4]thiazinium chloride]	11 ± 1.4				
381	2.3 ± 0.3	1.3 ± 0.1	4.62	381	381	2 ± 0.3	381		C[n+]1cc2c(c3ccccc31)Nc1ccc(Cl)nc1S2 [3d, 9-chloro-5-methyl-12H-quino[3,4-b]pyrido[5,6-e][1,4]thiazinium chloride]	7.7 ± 0.5				
25.1	2.8 ± 0.35	0.4 ± 0.08	4.24	12.5	50.2	2.1 ± 0.35	25.1	12.5 to 42.1	C[n+]1cc2c(c3ccccc31)Nc1ccc(F)nc1S2 [3e, 9-fluoro-5-methyl-12H-quino[3,4-b]pyrido[5,6-e][1,4]thiazinium chloride]	1.1 ± 0.14				
299	128 ± 18.2	62.5 ± 6.6	5.09	299	299	115 ± 10.7	299		C[n+]1cc2c(c3ccccc31)Nc1ccc(I)nc1S2 [3f, 9-iodo-5-methyl-12H-quino[3,4-b]pyrido[5,6-e][1,4]thiazinium chloride]	97.4 ± 6.2				
203	18.9 ± 1.4	22.1 ± 1.5	4.17	101	203	69.3 ± 5.3	203		Cc1ccnc2c1Nc1c(c[n+](C)c3ccccc13)S2 [3i, 5,11-dimethyl-12H-quino[3,4-b]pyrido[5,6-e][1,4]thiazinium chloride]	0.4 ± 0.07				
